# Reference: US20130165520A1, “Hybrid Molecule Having Mixed Retinoic Acid Receptor Agonism and Histone Deacetylase Inhibitory Properties” (priority 2010, published 2013)
# Assays:
# [1] = test system: OVCAR-8; conditions: 48 h
# [2] = test system: MCF7; conditions: MCF7 (Breast); 48 h
# [3] = test system: HT29; assay: cells; conditions: Homo sapiens, HT-29, 48 h
# [4] = test system: PC-3; conditions: PC-3 (Prostate); 48 h
# [5] = test system: A498; conditions: A498 (Renal); 48 h
# [6] = test system: EKVX; conditions: EKVX (Non-Small cell lung cancer); 48 h
# [7] = test system: CCRF-CEM; assay: cells; conditions: Homo sapiens, 48 h
# [8] = test system: LOX IMVI; conditions: LOX IMVI (Melanoma); 48 h
# [9] = test system: SF-295; conditions: SF-295 (CNS); 48 h
# [10] = test system: MDA-MB-435; conditions: MDA-MB-435 (Melanoma); 48 h
# [11] = test system: NCI-H23; conditions: NCI-H23 (Non-Small cell lung cancer); 48 h
# [12] = test system: HOP-62; conditions: HOP-62 (Non-Small cell lung cancer); 48 h
# [13] = test system: HS578T; conditions: HS578T (Breast); 48 h
# [14] = test system: HCC-2998; conditions: HCC-2998 (Colon); 48 h
# [15] = test system: non-tumorogenic immortalized mammary 184b5 cells; assay: Cell growth measurement
# [16] = test system: MDA-MB-468; conditions: MDA-MB-468 (Breast); 48 h
# [17] = test system: T-47D; conditions: T-47D (Breast); 48 h
# [18] = test system: NCI-H23; assay: cells; conditions: Homo sapiens, NCI-H23, 48 h
# [19] = test system: RXF393; assay: cells; conditions: Homo sapiens, RXF 393, 48 h
# [20] = test system: RPMI-8226; assay: cells; conditions: Homo sapiens, RPMI-8226, 48 h
# [21] = test system: SK-OV-3; assay: cells; conditions: Homo sapiens, SK-OV-3, 48 h
# [22] = test system: SK-MEL-2; conditions: SK-MEL-2 (Melanoma); 48 h
# [23] = test system: OVCAR-5; assay: cells; conditions: Homo sapiens, OVCAR-5, 48 h
# [24] = test system: KM12; conditions: KM12 (Colon); 48 h
# [25] = test system: MOLT-4; conditions: MOLT-4 (Leukemia); 48 h
# [26] = biological target: purified human HDAC3 (Homo sapiens, UniProt O15379); assay: Standard fluorescence HDAC assay; type: biochemical; conditions: purified human enzyme, read-out: IC50 against HDAC3
# Chain of purified human HDAC3 (O15379 whole entry): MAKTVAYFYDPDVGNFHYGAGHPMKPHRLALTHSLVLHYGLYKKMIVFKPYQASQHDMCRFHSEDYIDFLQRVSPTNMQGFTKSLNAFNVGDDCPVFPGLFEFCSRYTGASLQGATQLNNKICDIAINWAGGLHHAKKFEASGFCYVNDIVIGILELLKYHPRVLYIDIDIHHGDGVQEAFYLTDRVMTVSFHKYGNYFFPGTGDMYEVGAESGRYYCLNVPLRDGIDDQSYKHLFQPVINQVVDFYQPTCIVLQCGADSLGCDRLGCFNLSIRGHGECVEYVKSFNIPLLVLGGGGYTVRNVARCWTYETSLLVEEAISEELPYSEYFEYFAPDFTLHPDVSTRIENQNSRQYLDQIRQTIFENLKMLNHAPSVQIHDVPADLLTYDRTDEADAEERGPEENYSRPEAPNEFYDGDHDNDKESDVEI
# Chain of purified human HDAC3 (Q9Y618 395-489 partner limits assumed): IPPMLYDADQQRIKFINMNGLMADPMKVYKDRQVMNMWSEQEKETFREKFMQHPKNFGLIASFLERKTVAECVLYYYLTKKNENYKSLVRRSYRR
# [27] = test system: SN12C; conditions: SN12C (Renal); 48 h
# [28] = test system: MDA-MB-435; assay: cells; conditions: Homo sapiens, MDA-MB-435, 48 h
# [29] = test system: MCF7; assay: cells; conditions: Homo sapiens, MCF7, 48 h
# [30] = test system: SW-620; conditions: SW-620 (Colon); 48 h
# [31] = test system: UACC-257; assay: cells; conditions: Homo sapiens, UACC-257, 48 h
# [32] = test system: RAR target genes in MCF-7 cell line; assay: RT-qPCR analysis of RAR target genes; type: cell-based
# Source text: The agonist activity of 3 through its effects on RAR target genes was subsequently analyzed (FIG. 3).
# [33] = test system: OVCAR-3; conditions: 48 h
# [34] = test system: RXF393; conditions: RXF393 (Renal); 48 h
# [35] = test system: MOLT-4; assay: cells; conditions: Homo sapiens, MOLT-4, 48 h
# [36] = test system: NCI-H226; assay: cells; conditions: Homo sapiens, NCI-H226, 48 h
# [37] = test system: BT-549; conditions: BT-549 (Breast); 48 h
# [38] = test system: NCI-H322M; conditions: NCI-H322M (Non-Small cell lung cancer); 48 h
smiles,measurement,setting,value
CC1(C)CCC(C)(C)c2cc(-c3ccc4cc(C(=O)NO)ccc4c3)ccc21 [hybrid 3],TGI,[1],1.77 µM
same,TGI,[2],1.68 µM
same,GI50,[3],0.575 µM
same,CC50,[3]; read-out: LC50,7.6 µM
same,TGI,[4],4.25 µM
same,TGI,[5],3.8 µM
same,TGI,[6],3.43 µM
same,GI50,[7],0.306 µM
same,CC50,[7]; read-out: LC50,> 100 µM
same,TGI,[8],1.36 µM
same,TGI,[9],1.77 µM
same,TGI,[10],2.54 µM
same,TGI,[11],2.43 µM
same,TGI,[12],2.19 µM
same,TGI,[13],11.8 µM
same,TGI,[14],2.51 µM
same,effect on growth of non-tumorogenic cells,[15],only minimal effects
same,TGI,[16],2.75 µM
same,TGI,[17],4.03 µM
same,GI50,[18],0.996 µM
same,CC50,[18]; read-out: LC50,5.9 µM
same,GI50,[19],1.26 µM
same,CC50,[19]; read-out: LC50,6.27 µM
same,GI50,[20],0.689 µM
same,CC50,[20]; read-out: LC50,> 100 µM
same,GI50,[21],1.54 µM
same,CC50,[21]; read-out: LC50,34.8 µM
same,TGI,[22],6.31 µM
same,GI50,[23],4.12 µM
same,CC50,[23]; read-out: LC50,46.1 µM
same,TGI,[24],1.88 µM
same,TGI,[25],1.46 µM
same,IC50,[26],5 µM
same,TGI,[27],2.37 µM
same,GI50,[28],0.879 µM
same,CC50,[28]; read-out: LC50,6.8 µM
same,GI50,[29],0.47 µM
same,CC50,[29]; read-out: LC50,4.66 µM
same,TGI,[30],1.94 µM
same,GI50,[31],1.98 µM
same,CC50,[31]; read-out: LC50,29.7 µM
same,induction of RAR target genes (RT-qPCR),[32],clear induction of RARB2 and DHRS3
same,TGI,[33],1.88 µM
same,TGI,[34],2.82 µM
same,GI50,[35],0.371 µM
same,CC50,[35]; read-out: LC50,7.8 µM
same,GI50,[36],1.22 µM
same,CC50,[36]; read-out: LC50,18.8 µM
same,TGI,[37],4.81 µM
same,TGI,[38],3.5 µM
